Several values for one entry are separate records, joined by “and”; a condition that tells them apart may be missing. Equal values may be shown once. Entries after “also recorded” stand apart in the source; their conditions may differ.
What was measured:
[1] = currently available / commercial formulations, trunk skin; cited from earlier work
[2] = In-vitro percutaneous absorption of retinoic acid and triamcinolone acetonide from two cocoa butter vehicles (Franz cells, 48 h); conditions: for % Abs (% Absorbed) / % Absorbed / total absorption: percent of applied dose
Excerpt: The objective of this study was to measure the permeation of retinoic acid and triamcinolone acetonide through human skin in-vitro from two cocoa butter vehicles.
Two cocoa butter vehicles supplied by Hershey Foods Corporation were utilized: (1) pure cocoa butter and (2) partially hydrolyzed cocoa butter emulsion. Radioactive [11,12-^3 H] [retinoic acid (NET 920, Lot 2930-067, specific activity 1 mCi/ml) and [6,7-^3 H]-triamcinolone acetonide (NET 470, Lot 2904-170, specific activity 1 mCi/ml) were obtained from Dupont-New England Nuclear Corporation, Boston, Mass.
Each of the two cocoa butter vehicles was spiked separately with ^3 H-retinoic acid and ^3 H-Triamcinolone acetonide to give a total of four radioactive formulations for study. This was done by adding 25 μl (containing 25 μCi) of each tracer solution to approximately 1 gram of each vehicle and mixing with the tip of the dispensing micropipette. The pure cocoa butter vehicle was liquified by holding it under warm tap water prior to spiking. This was not done with the partially hydrolyzed cocoa butter emulsion. Neither formulation was used for three days after spiking to allow for diffusional mixing to take place. Final radioactive concentrations of each formulation were: […]
Human trunk skin without obvious signs of disease was used throughout. It was obtained within 24 hours of death, dermatomed to a thickness of approximately 0.25 mm, cryopreserved and sealed in water vapor-impermeableplastic bags. It was stored at -70° C. until the day of use then thawed by placing the bag in 37° C. water.
Skin from a single donor was cut into multiple sections large enough to fit on 0.8 cm^2 Franz cells. The dermal chamber was filled with isotonic saline, pH 7.4, into which a small magnetic stirring bar was placed. The epidermal chamber was left open to the ambient laboratory environment, approximately 22° C. and 40-60% RH. The cells were placed in a diffusion apparatus in which the dermal receptor solution was stirred magnetically at 600 RPM and its temperature maintained at 37° C.
To assure the integrity of each skin section, its permeability to tritiated water was determined before application of the test formulations. Following a brief (0.5-1 hour) equilibration period, 150 μl ^3 H2 O (specific activity 0.3 μCi/ml) was layered across the top of the skin section so that the entire exposed surface was covered. After 5 minutes the aqueous layer was removed and the surface of the skin carefully blotted dry. At t=0.5 hour the saline receptor phase was removed and analyzed for radioactive content by liquid scintillation counting. Skin specimens in which absorption of ^3 H2 O was less than 1.25 μl were considered acceptable.
Subsequently, each test formulation was applied at a target dose of 10 mg (cream) or 10 μl (butter). The cream formulation (partially hydrolyzed cocoa butter emulsion) was applied from the smooth, rounded-tip of a glass rod, the exact amount determined by weighing the rod before and after application. The butter formulation (pure cocoa butter) was first liquified under warm tap water, allowed to cool to room temperature, then applied with a 10 μl positive displacement micropipette prior to resolidifying. At 4, 8, 12, 24, 36 and 48 hours the receptor solution was removed in its entirety, replaced with fresh solution, and a 1 ml aliquot taken and assayed for radioactive content by liquid scintillation counting.
A 1 ml aliquot of each receptor sample containing ^3 H2 O, ^3 H-retinoic acid, or ^3 H-triamcinolone acetonide was placed in a 7 ml glass scintillation vial and gelled by the addition of 5 ml Opti-Fluor (Packard Instrument Co., Meriden, Conn.). These were counted in a Packard Tri-Carb Model 1900CA Liquid scintillation Analyzer equipped with internal standard and automatic quench correction.

[3] = butter (pure cocoa butter), 48 h, individual skin sections
[4] = butter, 48 h, average of three donors
[5] = butter, 48 h, average per skin donor (n=4), listed as RETINOIC ACID

In the case of `CC1=C(/C=C/C(C)=C/C=C/C(C)=C/C(=O)O)C(C)(C)CCC1` [retinoic acid], the “total absorption from currently available formulations” value [1] is listed as 1-5 % of the dose, the “absorption period versus current formulations” value ([2]; admixed with cocoa butter or partially hydrolyzed cocoa butter emulsion, in words) is listed as “able to sustain a longer absorption period than has been demonstrated with current retinoic acid formulations” and the “steady state rate of absorption” value ([2]; both cocoa butter formulations) is listed as “approximately 15 ng/cm^2 /hr”. The “rate of absorption profile / flux” value ([2]; both cocoa butter formulations, in words) was “higher than generally seen with other retinoic acid formulations; also recorded: relatively high flux rates”, the “Penet (Total Penetration)” value [2, 3] was 729.80 and 954.98 and 769.08 and 941.38 and 725.19 and 871.67 and 741.10 and 1267.53 and 552.40 and 552.46 and 685.17 and 944.68 and the “% Abs (% Absorbed)” value [2, 3] was 14.59% and 19.10% and 15.38% and 18.82% and 14.50% and 17.43% and 14.82% and 25.35% and 11.05% and 13.70% and 18.89%. The “Rate of absorption, R1” value ([2]; butter (pure cocoa butter), sample R1, mid-t 2 h, individual skin sections) was 36.55 ng/cm^2 /hr and 48.20 ng/cm^2 /hr and 39.43 ng/cm^2 /hr and 51.22 ng/cm^2 /hr and 55.25 ng/cm^2 /hr and 66.87 ng/cm^2 /hr and 50.92 ng/cm^2 /hr and 79.43 ng/cm^2 /hr and 40.64 ng/cm^2 /hr and 39.67 ng/cm^2 /hr and 51.71 ng/cm^2 /hr and 75.03 ng/cm^2 /hr, the “Rate of absorption, R3” value ([2]; butter (pure cocoa butter), sample R3, mid-t 10 h, individual skin sections) was 23.55 ng/cm^2 /hr and 28.39 ng/cm^2 /hr and 24.05 ng/cm^2 /hr and 29.61 ng/cm^2 /hr and 22.32 ng/cm^2 /hr and 21.53 ng/cm^2 /hr and 20.69 ng/cm^2 /hr and 34.12 ng/cm^2 /hr and 16.59 ng/cm^2 /hr and 15.24 ng/cm^2 /hr and 17.69 ng/cm^2 /hr and 25.75 ng/cm^2 /hr and the “Rate of absorption, R4” value ([2]; butter (pure cocoa butter), sample R4, mid-t 18 h, individual skin sections) was 14.13 ng/cm^2 /hr and 23.33 ng/cm^2 /hr and 15.22 ng/cm^2 /hr and 18.56 ng/cm^2 /hr and 18.11 ng/cm^2 /hr and 20.56 ng/cm^2 /hr and 20.18 ng/cm^2 /hr and 33.78 ng/cm^2 /hr and 15.63 ng/cm^2 /hr and 14.10 ng/cm^2 /hr and 16.64 ng/cm^2 /hr and 23.97 ng/cm^2 /hr. The “Rate of absorption, R5” value ([2]; butter (pure cocoa butter), sample R5, mid-t 30 h, individual skin sections) was 16.12 ng/cm^2 /hr and 19.00 ng/cm^2 /hr and 18.23 ng/cm^2 /hr and 16.25 ng/cm^2 /hr and 11.93 ng/cm^2 /hr and 15.30 ng/cm^2 /hr and 12.34 ng/cm^2 /hr and 23.05 ng/cm^2 /hr and 8.38 ng/cm^2 /hr and 9.60 ng/cm^2 /hr and 10.78 ng/cm^2 /hr and 16.34 ng/cm^2 /hr, the “Rate of absorption, R6” value ([2]; butter (pure cocoa butter), sample R6, mid-t 42 h, individual skin sections) was 15.54 ng/cm^2 /hr and 17.94 ng/cm^2 /hr and 14.86 ng/cm^2 /hr and 24.92 ng/cm^2 /hr and 11.83 ng/cm^2 /hr and 16.34 ng/cm^2 /hr and 13.15 ng/cm^2 /hr and 24.58 ng/cm^2 /hr and 8.20 ng/cm^2 /hr and 9.16 ng/cm^2 /hr and 10.53 ng/cm^2 /hr and 14.03 ng/cm^2 /hr and the “Total Penetration” value [2, 4] was 811.29. The “Penet (Total Penetration)” value [2, 5] was 848.81 and 901.37 and 683.68, the “Penet (Total Penetration)” value ([2]; butter, 48 h, average per skin donor (n=4), listed as Retinoic Acid) was 683.68 and 901.37 and 848.81 and the “Rate of absorption, R1” value ([2]; butter, R1, mid-t 2 h, average of three donors) was 52.91 ng/cm^2 /hr. For the same compound, the “Rate of absorption, R1” value ([2]; butter, R1, mid-t 2 h, average per skin donor (n=4), listed as RETINOIC ACID) was 43.85 ng/cm^2 /hr and 63.12 ng/cm^2 /hr and 51.76 ng/cm^2 /hr, the “Rate of absorption, R1” value ([2]; butter, R1, mid-t 2 h, average per skin donor (n=4), listed as Retinoic Acid) was 51.76 ng/cm^2 /hr and 63.12 ng/cm^2 /hr and 43.85 ng/cm^2 /hr and the “Rate of absorption, R3” value ([2]; butter, R3, mid-t 10 h, average of three donors) was 23.30 ng/cm^2 /hr. The “Rate of absorption, R3” value ([2]; butter, R3, mid-t 10 h, average per skin donor (n=4), listed as RETINOIC ACID) was 26.40 ng/cm^2 /hr and 24.67 ng/cm^2 /hr and 18.82 ng/cm^2 /hr, the “Rate of absorption, R3” value ([2]; butter, R3, mid-t 10 h, average per skin donor (n=4), listed as Retinoic Acid) was 18.82 ng/cm^2 /hr and 24.67 ng/cm^2 /hr and 26.40 ng/cm^2 /hr and the “Rate of absorption, R4” value ([2]; butter, R4, mid-t 18 h, average of three donors) was 19.52 ng/cm^2 /hr. The “Rate of absorption, R4” value ([2]; butter, R4, mid-t 18 h, average per skin donor (n=4), listed as RETINOIC ACID) was 17.81 ng/cm^2 /hr and 23.16 ng/cm^2 /hr and 17.59 ng/cm^2 /hr, the “Rate of absorption, R4” value ([2]; butter, R4, mid-t 18 h, average per skin donor (n=4), listed as Retinoic Acid) was 17.59 ng/cm^2 /hr and 23.16 ng/cm^2 /hr and 17.81 ng/cm^2 /hr and the “Rate of absorption, R5” value ([2]; butter, R5, mid-t 30 h, average of three donors) was 14.78 ng/cm^2 /hr. For the same compound, the “Rate of absorption, R5” value ([2]; butter, R5, mid-t 30 h, average per skin donor (n=4), listed as RETINOIC ACID) was 17.40 ng/cm^2 /hr and 15.66 ng/cm^2 /hr and 11.28 ng/cm^2 /hr, the “Rate of absorption, R5” value ([2]; butter, R5, mid-t 30 h, average per skin donor (n=4), listed as Retinoic Acid) was 11.28 ng/cm^2 /hr and 15.66 ng/cm^2 /hr and 17.40 ng/cm^2 /hr and the “Rate of absorption, R6” value ([2]; butter, R6, mid-t 42 h, average of three donors) was 15.09 ng/cm^2 /hr. For the same compound, the “Rate of absorption, R6” value ([2]; butter, R6, mid-t 42 h, average per skin donor (n=4), listed as RETINOIC ACID) was 18.31 ng/cm^2 /hr and 16.48 ng/cm^2 /hr and 10.48 ng/cm^2 /hr, the “Rate of absorption, R6” value ([2]; butter, R6, mid-t 42 h, average per skin donor (n=4), listed as Retinoic Acid) was 10.48 ng/cm^2 /hr and 16.48 ng/cm^2 /hr and 18.31 ng/cm^2 /hr and the “% Absorbed / total absorption” value [2, 4] was 16.2%. The “% Absorbed / total absorption” value ([2]; butter, 48 h, average of three donors, listed as Retinoic Acid) was 16.22% and the “% Abs (% Absorbed)” value [2, 5] was 16.97% and 18.02% and 13.67%.
